# Measured values as given in PMC10364322, “Evaluation of chronic drug-induced electrophysiological and cytotoxic effects using human-induced pluripotent stem cell-derived cardiomyocytes (hiPSC-CMs)” (Frontiers in Pharmacology, 2023).
# Like-named read-outs stand apart in the source and are kept apart here.
# Assays:
# cynomolgus monkeys = tested on: cynomolgus monkeys; design: method as in Gill et al., 2017; conditions: ref Gill et al., 2017; cited from earlier work
# [1] = tested on: hiPSC-CMs (iCell-Cardiomyocytes^2); test: ApoLive-Glo Multiplex Assay: viability (live cells); type: cell-based, human
# Experimental: (§1) iCell-Cardiomyocytes^2 (Fujifilm Cellular Dynamics Inc., Madison, WI, United States) were seeded into 96 well-plates (Greiner Bio One, ref. 655946) according to the manufacturer instructions, at a density of 50 k cells/well. […] To assess effects on viability and cytotoxicity, two assay combination kits were used: 1) RealTime-Glo™ Annexin V Apoptosis and Necrosis Assay [Promega, JA1011 ([Kupcho et al., 2019])] and 2) ApoLive-Glo Multiplex Assay [Promega, G6410 ([Flörkemeier et al., 2022])]. The assays were performed according to manufacturer instructions. The experiments were repeated at 24, 48, and 72 h in order to assess any time-dependent change in live cells or activation of cell-death pathways.
# (§2) The nonparametric Wilcoxon-Mann Whitney Test was used to compare the percent change from the baseline (Δ%) value between the group treated with the compound at a given concentration and the group treated with the DMSO at each matching time points. A two-sided test at 5% significance level was considered. […] To assess the physiological relevance of changes, a tolerance interval of DMSO experiments was calculated at each time point, for each parameter. Specifically, the Δ% values of all (pooled) DMSO wells (N = 81) were used to obtain the non-parametric 80%–95% (p = 0.80 & 1-α = 0.95) tolerance interval (TI). TIs indicate an interval where, with a certain confidence level (1- α = 0.95), a specified proportion (p = 0.80) of percent change for DMSO data falls. The lower and upper limits based on the TI values were used as cut-offs for the interpretation of the changes. For the cytotoxicity assays, measurements of fluorescence (after background fluorescence subtraction) from wells treated with the compounds were normalized by the average value of vehicle experiments (DMSO 0.1%) to obtain a DMSO-corrected, delta/delta percent change. Experiments from each condition, as delta/delta percent, were averaged and expressed as mean ± SD. Statistical analysis was performed using a non-parametric test (Kruskal-Wallis) and each treatment condition was compared to the relative DMSO 0.1%. Differences were considered statistically significant when the p-value was smaller than 0.05.
# [2] = tested on: caspases 3,7 in hiPSC-CMs; test: ApoLive-Glo Multiplex Assay: apoptosis, caspases 3,7 activation; type: cell-based, human
# Experimental: as §1, §2
# [3] = tested on: Annexin V activation in hiPSC-CMs; type: cell-based
# Experimental: The assays were performed according to manufacturer instructions.
# as §2, with “Specifically, the Δ% values of all (pooled) DMSO wells (N = 81) were used to obtain the non-parametric 80%–95% (p = 0.80 & 1-α = 0.95) tolerance interval (TI).” left out
# [4] = tested on: hiPSC-CMs (iCell-Cardiomyocytes^2); test: RealTime-Glo Annexin V Apoptosis and Necrosis Assay: necrosis; type: cell-based, human
# Experimental: as §1, §2
# patients = tested on: patients; design: method as in Wenningmann et al., 2019; conditions: doses above 700 mg/m^2; ref Wenningmann et al., 2019; cited from earlier work
# [5] = tested on: human embryonic stem cell-derived cardiomyocytes; design: method as in Hihara et al., 2014; conditions: 10 µM; 24 h-treatment; 4% in vehicle-treated wells; ref Hihara et al., 2014; cited from earlier work
compound,measurement,setting,value
COc1nc(N)nc2c1ncn2[C@@H]1O[C@H](COP(=O)(N[C@@H](C)C(=O)OCC(C)(C)C)Oc2cccc3ccccc23)[C@@H](O)[C@@]1(C)O (some centres unmarked) [BMS-986094],estimated dose that caused cardiotoxicity,cynomolgus monkeys,3 µM
C[C@H](CS)C(=O)N1CCC[C@H]1C(=O)O [Captopril],"Live Cells (viability), Mean±SD","[1]; 10 µM, 24h",-8.4±17.4 Δ/Δ%
same,"Live Cells (viability), Mean±SD","[1]; 10 µM, 48h",-9.1±9.5 Δ/Δ%
same,"Live Cells (viability), Mean±SD","[1]; 10 µM, 72h",2.4±8.5 Δ/Δ%
same,number of live cells,"[1]; any of the time points (24, 48, 72 h)",did not show any significant change in live cell number
same,"Caspases 3, 7 (apoptosis activation), Mean±SD","[2]; 10 µM, 24h",-6.9±11.1 Δ/Δ%
same,"Caspases 3, 7 (apoptosis activation), Mean±SD","[2]; 10 µM, 48h",-3±10.7 Δ/Δ%
same,"Caspases 3, 7 (apoptosis activation), Mean±SD","[2]; 10 µM, 72h",-3.6±5 Δ/Δ%
same,apoptosis activation,"[3]; 24, 48, 72 h",did not display any significant changes in necrosis or apoptosis activation
same,"Necrosis, Mean±SD","[4]; 10 µM, 24h",21.5±33.7 Δ/Δ%
same,"Necrosis, Mean±SD","[4]; 10 µM, 48h",-8.1±21.1 Δ/Δ%
same,"Necrosis, Mean±SD","[4]; 10 µM, 72h",13.9±44.2 Δ/Δ%
same,necrosis activation,"[4]; 24, 48, 72 h",did not display any significant changes in necrosis or apoptosis activation
COc1cccc2c1C(=O)c1c(O)c3c(c(O)c1C2=O)C[C@@](O)(C(=O)CO)C[C@@H]3O[C@H]1C[C@H](N)[C@H](O)[C@H](C)O1 [Doxorubicin],"Live Cells (viability), Mean±SD","[1]; 0.3 µM, 24h",-7.1±16.9 Δ/Δ%
same,"Live Cells (viability), Mean±SD","[1]; 0.3 µM, 48h",-9±11.9 Δ/Δ%
same,drop in live cells assay,"[1]; 0.3 µM, 72h",~40%
same,"Live Cells (viability), Mean±SD","[1]; 1 µM, 24h",-10.5±16.2 Δ/Δ%
same,number of live cells,"[1]; 10 µM, 24, 48, 72 h","strong impact on the number of live cells, further decreasing over time"
same,"Caspases 3, 7 (apoptosis activation), Mean±SD","[2]; 0.3 µM, 24h",0.6±15.9 Δ/Δ%
same,"Caspases 3, 7 (apoptosis activation), Mean±SD","[2]; 0.3 µM, 48h",109.5±125.1 Δ/Δ%
same,"Caspases 3, 7 (apoptosis activation), Mean±SD","[2]; 10 µM, 72h",113±14.3 Δ/Δ%
same,"activation of caspases 3,7 (apoptosis)","[2]; 24, 48, 72 h","induced the largest activation of caspases 3,7"
same,"Annexin V (apoptosis activation), Mean±SD","[3]; 0.3 µM, 24h",24.6±24 Δ/Δ%
same,"Annexin V (apoptosis activation), Mean±SD","[3]; 0.3 µM, 48h",31.2±28.5 Δ/Δ%
same,activation of Annexin V (apoptosis),"[3]; 24, 48, 72 h","largest activation of caspases 3,7, and of Annexin V"
same,"Necrosis, Mean±SD","[4]; 0.3 µM, 24h",9.8±45.2 Δ/Δ%
same,"Necrosis, Mean±SD","[4]; 0.3 µM, 48h",40.2±103.1 Δ/Δ%
same,"Necrosis, Mean±SD","[4]; 1 µM, 24h",9.8±27 Δ/Δ%
same,"Necrosis, Mean±SD","[4]; 1 µM, 48h",72.9±120.4 Δ/Δ%
same,activation of necrosis,"[4]; over time, especially at 72 h",also showed the activation of necrosis
same,"congestive heart failure, share of patients",patients,up to 48%
N=C(N)c1ccc(OCCCCCOc2ccc(C(=N)N)cc2)cc1 [Pentamidine],FPDc prolongation,[5],62%
CCN(CC)CCNC(=O)c1c(C)[nH]c(/C=C2\C(=O)Nc3ccc(F)cc32)c1C [Sunitinib],"Live Cells (viability), Mean±SD","[1]; 1 µM, 24h",-12.5±1.8 Δ/Δ%
same,"Live Cells (viability), Mean±SD","[1]; 1 µM, 48h",-8.8±2.9 Δ/Δ%
same,"Live Cells (viability), Mean±SD","[1]; 1 µM, 72h",5.8±5.9 Δ/Δ%
same,number of live cells,[1]; 3 µM,did not cause a relevant change
same,"Live Cells (viability), Mean±SD","[1]; 3 µM, 72h",-21.4±3.7 Δ/Δ%
same,"Live Cells (viability), Mean±SD","[1]; 3 µM, 24h",-1.8±19.3 Δ/Δ%
same,"Live Cells (viability), Mean±SD","[1]; 3 µM, 48h",-13.1±9.7 Δ/Δ%
same,number of live cells,"[1]; 10 µM, 24, 48, 72 h",significant decrease in the number of live cells
same,"concentration at which decrease in live-cell count occurred, times the median fCmax",[1]; 48 h time point,higher than 300
same,"Caspases 3, 7 (apoptosis activation), Mean±SD","[2]; 1 µM, 24h",11±8.3 Δ/Δ%
same,"Caspases 3, 7 (apoptosis activation), Mean±SD","[2]; 1 µM, 72h",70.2±31.9 Δ/Δ%
same,"Caspases 3, 7 (apoptosis activation), Mean±SD","[2]; 10 µM, 48h",42.9±61.5 Δ/Δ%
same,"Caspases 3, 7 (apoptosis activation), Mean±SD","[2]; 10 µM, 72h",-45±134.8 Δ/Δ%
same,"Annexin V (apoptosis activation), Mean±SD","[3]; 1 µM, 24h",-7.5±2.1 Δ/Δ%
same,"Annexin V (apoptosis activation), Mean±SD","[3]; 1 µM, 48h",-11.9±4.5 Δ/Δ%
same,"Annexin V (apoptosis activation), Mean±SD","[3]; 1 µM, 72h",-0.3±7 Δ/Δ%
same,"Annexin V (apoptosis activation), Mean±SD","[3]; 3 µM, 24h",7±8.3 Δ/Δ%
same,"Annexin V (apoptosis activation), Mean±SD","[3]; 10 µM, 48h",14.8±35.2 Δ/Δ%
same,"Annexin V (apoptosis activation), Mean±SD","[3]; 10 µM, 72h",-32.7±15.7 Δ/Δ%
same,"Necrosis, Mean±SD","[4]; 1 µM, 72h",88.5±23.2 Δ/Δ%
same,necrosis-driven cell death,[4]; especially at 10 µM,predominant necrosis-driven cell death
